Reference: patent US8865672B2, “Prevention of tissue ischemia and related methods” (The United States of America, as represented by the …, priority 2006, dated 2014)

How the values were obtained:
CD47 = test: Western analysis of CD47 in human aortic VSMC; type: cell-based; details: 48 hours
Method: Human aortic VSMC were plated onto 12-well culture plates (Nunc) at a density of 5×10^4 cells/well in SM-GM+2% FCS and cultured until approximately 90% confluent. A translation-blocking antisense morpholino oligonucleotide complementary to human and murine CD47 ([…]; SEQ ID NO: 21) and a five-base mismatch control (CGTgACAGcCAcGACCgACTGCgCA; SEQ ID NO: 22) were obtained from GeneTools (Philomath, Oreg.). Cultured cells were treated as per the manufacturer's recommendation with morpholinos (10 μM) and utilized within 48 hours of treatment.
Murine VSMC were plated in 12-well culture plates (5×10^4 cells/well) (Nunc) in growth medium and weaned over 48 h of additives and serum and then treated in basic medium with 0.1% BSA. Cells were washed twice with PBS and lysed in 1×SDS sample buffer containing 10 μg/mL leupeptin, 10 μg/mL aprotinin, 1 mM Na3VO4, and 40 mM NaF. Lysates prepared in the SDS sample buffer described above were electrophoresed in 4-12% BisTris NuPAGE gels and transferred to PVDF membranes prior to immunoblotting using a mouse monoclonal CD47 antibody, clone B6H12 (Lab Visions, Fremont, Calif.).

human platelets = test: Human platelet adhesion assay; type: cell-based; details: for stimulation of adhesion by TSP1: fibrinogen, in the presence of NO
Method: Bacteriological Petri dishes (35×10 mm, Becton Dickinson Labware) were pre-coated with collagen (3 μg/ml) or fibrinogen (15 μg/mL) overnight. Following aspiration of non-adherent matrix, dishes were blocked with 1% BSA. Fresh platelets were washed and suspended in Tyrode's buffer and allowed to adhere for 30 minutes. Plates were washed with PBS, fixed with 0.5% glutaraldehyde and stained with 0.02% toluidine blue. Adherent platelets were counted microscopically. In some experiments platelets were pre-incubated with the Rap1 geranylgeranyltransferase inhibitor GGTI-298 (10 μM) for 30 minutes prior to initiating adhesion.

[1] = test system: white hairless Yucatan miniature pig VSMC; test: Porcine VSMC adhesion assay; type: cell-based; details: TSP1 0.022-2.2 nM
Method: White hairless Yucatan miniature pig VSMC were plated at 10,000 cells/well onto 96-well plates (Maxisorb, Nunc) precoated with type I collagen (3 μg/ml). Cells were incubated for 1 h in basal medium (lacking additives and serum) with 0.1% BSA and the indicated concentrations of TSP1 and DEA/NO. Plates were then washed with PBS, fixed with glutaraldehyde, stained with crystal violet, and washed. Absorbed stain was solubilized with acetic acid from fixed cells and the resulting color signal determined on a MR580Microelisa Auto Reader, (Dynatech, Alexandria, Va.) at 450 nm wavelength. In other experiments cell were treated with a CD47 or mismatch control morpholino as described for 48 h prior to harvesting.

[2] = test system: murine aortic VSMC (WT, TSP1 null, CD47 null); test: 3D collagen gel contraction assay, murine VSMC; type: cell-based, mouse; details: for relaxation of pre-contracted VSMC by NO: TSP1 2.2 nM
Method: Type I collagen gel (3 mg/ml) with 10×M199 (Gibco, Grand Island, N.Y.) at a 10:1 ratio of collagen to medium was prepared, pH balanced with NaOH and seeded with either HAVSMC or VSMC harvested from aortic segments from C57B16 WT or TSP1 null mice (50,000 cells in 75 μl of gel/well) and aliquoted to 96-well plates (Nunc, Denmark). Plates were incubated for 12 h 37° C. and 5% CO2 allowing for gelation and cell spreading, gently released from the well walls and incubated in serum and additive deficient growth medium with 0.1% BSA in the presence of the indicated treatment agents for 10 h. Contraction was determined by measuring the diameter in perpendicular planes (x, y) of each disk, an average obtained and surface area calculated as (d/2)^2π. Experiments were performed in triplicate. Results represent the mean±SD of at least three separate experiments.
Collagen gel contraction assays were performed using murine derived VSMC (7.5×10^4 cells/gel) as described (Isenberg et al., Blood 2006; Example 2). Wells receiving TSP1 were pre-incubated with the indicated concentrations of agent overnight. Contraction was initiated with either 10% FCS or sphingosine 1-phosphate (S1P, 100 nM).

[3] = test system: myosin light chain-2 (MLC) in HAVSMC; test: Myosin light chain phosphorylation in VSMC; type: cell-based, human; details: S1P 100 nM, DEA/NO 10 μM, TSP1 2.2 nM
Method: VSMC were plated at 90% confluence and grown in smooth muscle growth media containing 2% FBS overnight. To stimulate MLC phosphorylation, sphingosine-1-phosphate (SIP; Biomol International, Plymouth, Pa.) was added at a final concentration of 100 nM. The nitric oxide donor DEA/NO was added at a final concentration of 10 μM. For TSP1 pretreatment, cells were incubated with 2.2 nM TSP1 before addition of SIP or DEA/NO. Cells were subsequently washed twice with PBS and lysed immediately in 1×SDS sample buffer containing 10 μg/mL leupeptin, 10 μg/mL aprotinin, 1 mM Na3VO4, and 40 mM NaF. Lysates prepared in the SDS sample buffer described above were electrophoresed in 4-12% BisTris NuPAGE gels and transferred to PVDF membranes prior to immunoblotting with rabbit polyclonal antibodies against myosin light chain-2 (MLC) and phospho-MLC2 (T18/S19, Cell Signaling Technology, Danvers, Mass.).

[4] = test system: murine ASMC (WT, CD36 null, CD47 null); test: Intracellular cGMP in murine ASMC; type: cell-based, mouse
Procedure, shortened: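 Aortic smooth muscle cells from wild-type C57Bl/6, CD36-null or CD47-null mice, passage 1–4, plated overnight in full growth medium. Weaned to SM-GM + 0.1% BSA before treatment with NO donor and other agents. Intracellular cGMP measured by enzyme immunoassay.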

| Substance | CD47 protein (Western) (CD47) | basal adhesion of platelets on type I collagen and fibrinogen (human platelets; TSP1 2.2 nM) | decrease in platelet adhesion in response to exogenous NO (human platelets; fibrinogen or collagen, DEA/NO 10 μM) | stimulation of adhesion by TSP1 (human platelets) [%] | stimulation of adhesion by TSP1 (human platelets; following Rap1 blockade with GGTI-298) [%] | NO-stimulated adhesion to type I collagen [1] | relaxation of pre-contracted VSMC by NO ([2]; CD47 null VSMC) | contractile response to S1P ([2]; TSP1 null murine VSMC) | relaxation of pre-contracted VSMC by NO ([2]; wild type cells) | MLC dephosphorylation induced by NO [3] | NO-stimulated cGMP ([4]; CD36 null MASMC) | NO-stimulated cGMP ([4]; CD47 null MASMC) | NO-stimulated cGMP ([4]; WT MASMC) |
| --- | --- | --- | --- | --- | --- | --- | --- | --- | --- | --- | --- | --- | --- |
| CGTCACAGGCAGGACCCACTGCCCA (all phosphorodiamidate morpholino (PMO)) [CD47 morpholino] | dose dependent decrease in CD47 protein | – | – | – | – | – | – | – | – | – | – | – | – |
| TSP1: thrombospondin-1 prepared from human platelets | – | moderately increased basal adhesion | lost | 55±9 | 25±8 | inhibited | absent | increased the contractile response of TSP1 null cells to S1P | completely inhibited | partially restored MLC phosphorylation | completely inhibited | did not significantly inhibit | inhibited |
